Measured values as given in ChEMBL document CHEMBL2331268, “The interaction of imidazole-, imidazolium-, and tetrazolium-containing compounds with DNA” (Bioorg Med Chem Lett, 2013).
The source made the active and inactive calls. No cut-off for these calls is given here.

Test system: Salmonidae
Experiment: Displacement of SYBR green I from salmon testes DNA assessed as compound treated with SYBR green I followed by DNA added relative to control

| Activity | SMILES |
| --- | --- |
| Active | C[n+]1ccn(CCCCCCCCCCCCCCCCn2cc[n+](C)c2)c1 |
| Active | c1cn(CCCCCCCCCCCCCCCCCCn2ccnc2)cn1 |

Test system: Salmonidae
Experiment: Displacement of SYBR green I from salmon testes DNA assessed as SYBR green I treated with DNA followed by compound added relative to control

| Activity | SMILES |
| --- | --- |
| Active | C[n+]1ccn(CCCCCCCCCCCCCCCCn2cc[n+](C)c2)c1 |
| Active | c1cn(CCCCCCCCCCCCCCCCn2ccnc2)cn1 |
| Active | C[n+]1ccn(CCCCCCCCCCCCCCCn2cc[n+](C)c2)c1 |

Biological target: not listed separately
Experiment: Displacement of SYBR green I from salmon testes DNA assessed as compound treated with DNA followed by SYBR green I added relative to control
Parameters: species or system Salmonidae

| SMILES | IC50 [mM] |
| --- | --- |
| C[n+]1ccn(CCCCCCCCCCCn2cc[n+](C)c2)c1 | > 2.5 |
| c1ccc(-c2nn(-c3ccccc3)[n+](-c3ccccc3)n2)cc1 [TETRAZOLIUM RED] | > 2.5 |
| Brc1cccc(Cn2cc[n+](Cc3cccc(Br)c3)c2)c1 | > 2.5 |
| C[n+]1ccn(CCCCCCCCCCCCCCCCn2cc[n+](C)c2)c1 | 0.03 |
| c1cn(CCCCCCCCCCCCCCCn2ccnc2)cn1 | > 2.5 |
| CC[n+]1ccn(CCCCCCCCCCCCn2cc[n+](CC)c2)c1 | > 2.5 |
| c1cn(CCCCCCCCCCCCCCCCn2ccnc2)cn1 | 0.052 |
| COc1cc(-c2ccc(-n3nc(-c4ccccc4)n[n+]3-c3ccccc3)c(OC)c2)ccc1-n1nc(-c2ccccc2)n[n+]1-c1ccccc1 [TETRAZOLIUM BLUE CHLORIDE] | > 2.5 |
| C[n+]1ccn(CCCCCCCCCCn2cc[n+](C)c2)c1 | > 2.5 |
| C[n+]1ccn(CCCCCCCCCCCCn2cc[n+](C)c2)c1 | > 2.5 |
| C[n+]1ccn(Cc2ccc(-c3ccc(Cn4cc[n+](C)c4)cc3)cc2)c1 | > 2.5 |
| c1cn(CCCCCCCCCCCCCCCCCCCCn2ccnc2)cn1 | > 2.5 |
| c1cn(-c2ccc(-n3ccnc3)cc2)cn1 | > 2.5 |
| c1ccc(-c2nn(-c3ccccc3)[n+](-c3ccc(-c4ccc(-[n+]5nc(-c6ccccc6)nn5-c5ccccc5)cc4)cc3)n2)cc1 [NEOTETRAZOLIUM CHLORIDE] | 0.066 |
| c1cn(CCCCCCCCn2ccnc2)cn1 | > 2.5 |
| C[n+]1ccn(-c2ccc(-c3ccc(-n4cc[n+](C)c4)cc3)cc2)c1 | 0.423 |
| Clc1ccc(Cn2cc[n+](Cc3ccc(Cl)cc3)c2)cc1 | > 2.5 |
| COc1cc(-c2ccc(-[n+]3nc(-c4ccccc4)nn3-c3ccc([N+](=O)[O-])cc3)c(OC)c2)ccc1-[n+]1nc(-c2ccccc2)nn1-c1ccc([N+](=O)[O-])cc1 [NITROBLUE TETRAZOLIUM CHLORIDE] | 0.36 |
| C[n+]1ccn(CCCOc2ccc(OCCCn3cc[n+](C)c3)cc2)c1 | > 2.5 |
| O=[N+]([O-])c1ccc(Cn2cc[n+](Cc3ccc([N+](=O)[O-])cc3)c2)cc1 | 0.0003 |
| O=[N+]([O-])c1ccc(-n2nc(-c3ccccc3)n[n+]2-c2ccc(I)cc2)cc1 [IODONITROTETRAZOLIUM CHLORIDE] | > 2.5 |
| Brc1ccc(Cn2cc[n+](Cc3ccc(Br)cc3)c2)cc1 | > 2.5 |
| COc1cc(-c2ccc(-n3nc(-c4ccc([N+](=O)[O-])cc4)n[n+]3-c3ccc([N+](=O)[O-])cc3)c(OC)c2)ccc1-n1nc(-c2ccc([N+](=O)[O-])cc2)n[n+]1-c1ccc([N+](=O)[O-])cc1 | 0.034 |
| Brc1ccc(C[n+]2ccn(Cc3ccccc3)c2)cc1 | > 2.5 |
| c1cn(CCCCCCCCCCCCn2ccnc2)cn1 | > 2.5 |
| Clc1ccccc1Cn1cc[n+](Cc2ccccc2Cl)c1 | > 2.5 |
| O=[N+]([O-])c1ccc(C[n+]2ccn(-c3ccc(-c4ccc(-n5cc[n+](Cc6ccc([N+](=O)[O-])cc6)c5)cc4)cc3)c2)cc1 | 0.0004 |

The remaining lines, values ahead:

| IC50 [mM] | SMILES |
| --- | --- |
| > 2.5 | c1cn(Cc2ccc(-c3ccc(Cn4ccnc4)cc3)cc2)cn1 |
| 0.0252 | C[n+]1ccn(CCCCCCCCCCCCCn2cc[n+](C)c2)c1 |
| > 2.5 | c1ccc(-c2nn(-c3ccccc3)[n+](-c3cccc4ccccc34)n2)cc1 [TETRAZOLIUM VIOLET] |
| > 2.5 | C[n+]1ccn(CCCCCCCCn2cc[n+](C)c2)c1 |
| > 2.5 | c1cn(CCCCCCn2ccnc2)cn1 |
| > 2.5 | c1cn(CCCCCCCCCCCCCCn2ccnc2)cn1 |
| 0.109 | CCC[n+]1ccn(CCCCCCCCCCCCn2cc[n+](CCC)c2)c1 |
| > 2.5 | c1cn(CCCCn2ccnc2)cn1 |
| 0.0074 | C[n+]1ccn(CCCCCCCCCCCCCCCCCCn2cc[n+](C)c2)c1 |
| > 2.5 | c1ccc2cc(Cn3cc[n+](Cc4ccc5ccccc5c4)c3)ccc2c1 |
| 0.186 | c1cn(CCCCCCCCCCCCCn2ccnc2)cn1 |
| 0.008 | C[n+]1ccn(CCCCCCCCCCCCCCCCCCCCn2cc[n+](C)c2)c1 |
| > 2.5 | c1cn(-c2ccc(-c3ccc(-n4ccnc4)cc3)cc2)cn1 |
| > 2.5 | c1cn(CCCCCCCCCCCn2ccnc2)cn1 |
| > 2.5 | c1cn(CCCCCCCCCCn2ccnc2)cn1 |
| > 2.5 | C[n+]1ccn(CCCCCCCCCCCCCCCn2cc[n+](C)c2)c1 |
| 0.37 | c1ccc(C[n+]2ccn(-c3ccc(-c4ccc(-n5cc[n+](Cc6ccccc6)c5)cc4)cc3)c2)cc1 |
| > 2.5 | C[n+]1ccn(-c2ccc(-n3cc[n+](C)c3)cc2)c1 |
| 0.058 | c1cn(CCCCCCCCCCCCCCCCCCn2ccnc2)cn1 |
| > 2.5 | C[n+]1ccn(CCCCCCn2cc[n+](C)c2)c1 |
| 1.21 | C[n+]1ccn(CCCCCCCCCCCCCCn2cc[n+](C)c2)c1 |
| > 2.5 | C[n+]1ccn(CCCCn2cc[n+](C)c2)c1 |
| > 2.5 | Ic1ccc(Cn2cc[n+](Cc3ccc(I)cc3)c2)cc1 |
